Assay results published in ChEMBL document CHEMBL4229543, “Squaramides as novel class I and IIB histone deacetylase inhibitors for topical treatment of cutaneous t-cell lymphoma” (Bioorg Med Chem Lett, 2018).
Converted amounts (≈) assume the structure as drawn.

Assays:
[1] = Clearance in human hepatocytes assessed per million cells at 1 uM after 5 to 90 mins by LC-MS/MS analysis; assay type: ADME, cell-based, Hepatocyte; settings: read-out: CLH
[2] = Solubility in PG/EtOH (96%) at 30 mg/mL after 24 hrs by UV-spectrometric method; assay type: physicochemical; settings: PG/EtOH (96%)
[3] = Solubility in pH 7.4 phosphate buffer solution at 100 uM after 24 hrs by HPLC method; assay type: physicochemical
HuT78 = assay: Pro-apoptotic activity in human HUT78 cells after 18 hrs by caspase-Glo 3/7 assay; assay type: functional, cell-based; settings: HuT78, 18 h
[4] = target: T1, NAD-dependent protein deacetylase sirtuin-1 (Homo sapiens, UniProt Q96EB6); assay: Inhibition of human recombinant SIRT1 using fluorogenic HDAC substrate after 20 mins by fluorimetrc method
T1 sequence (Q96EB6 whole entry): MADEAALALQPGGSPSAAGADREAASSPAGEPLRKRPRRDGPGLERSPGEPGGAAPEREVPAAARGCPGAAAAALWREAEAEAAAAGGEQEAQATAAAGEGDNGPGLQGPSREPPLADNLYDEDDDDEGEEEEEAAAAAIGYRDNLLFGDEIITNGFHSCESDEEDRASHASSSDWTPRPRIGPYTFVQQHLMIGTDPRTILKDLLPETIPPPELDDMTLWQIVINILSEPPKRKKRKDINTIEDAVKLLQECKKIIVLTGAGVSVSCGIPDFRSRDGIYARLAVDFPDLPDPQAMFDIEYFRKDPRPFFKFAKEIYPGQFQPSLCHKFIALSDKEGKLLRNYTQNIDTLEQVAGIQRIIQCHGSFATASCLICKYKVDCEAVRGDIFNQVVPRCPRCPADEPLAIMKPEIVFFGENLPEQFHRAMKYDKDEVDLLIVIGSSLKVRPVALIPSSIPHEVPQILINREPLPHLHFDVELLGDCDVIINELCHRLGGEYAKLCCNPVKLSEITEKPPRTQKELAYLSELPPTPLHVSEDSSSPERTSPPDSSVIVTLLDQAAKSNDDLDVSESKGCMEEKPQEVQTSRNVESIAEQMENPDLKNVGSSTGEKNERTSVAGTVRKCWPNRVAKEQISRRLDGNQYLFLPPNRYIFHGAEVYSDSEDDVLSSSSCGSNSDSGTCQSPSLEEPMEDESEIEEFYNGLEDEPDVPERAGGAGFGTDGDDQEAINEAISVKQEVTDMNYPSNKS

[5] = target: T2, NAD-dependent protein deacetylase sirtuin-2 (Homo sapiens, UniProt Q8IXJ6); assay: Inhibition of human recombinant SIRT2 using fluoro-lysine sirtuin 2 deacetylase substrate after 60 mins by fluorimetrc method
T2 sequence (Q8IXJ6 whole entry): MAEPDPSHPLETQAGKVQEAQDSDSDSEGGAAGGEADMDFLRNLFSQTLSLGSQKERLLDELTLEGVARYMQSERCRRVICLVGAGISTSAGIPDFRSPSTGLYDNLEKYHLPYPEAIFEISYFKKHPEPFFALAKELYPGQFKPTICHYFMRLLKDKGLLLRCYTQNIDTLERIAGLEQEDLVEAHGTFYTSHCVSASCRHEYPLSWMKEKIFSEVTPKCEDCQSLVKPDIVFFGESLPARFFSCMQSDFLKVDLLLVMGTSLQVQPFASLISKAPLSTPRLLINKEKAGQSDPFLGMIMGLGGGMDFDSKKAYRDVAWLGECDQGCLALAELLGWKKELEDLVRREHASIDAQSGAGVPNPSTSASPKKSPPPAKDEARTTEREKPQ

[6] = target: T3, NAD-dependent protein deacetylase sirtuin-3, mitochondrial (Homo sapiens, UniProt Q9NTG7); assay: Inhibition of human recombinant SIRT3 using fluoro-lysine sirtuin 2 deacetylase substrate after 45 mins by fluorimetrc method
T3 sequence (Q9NTG7 whole entry): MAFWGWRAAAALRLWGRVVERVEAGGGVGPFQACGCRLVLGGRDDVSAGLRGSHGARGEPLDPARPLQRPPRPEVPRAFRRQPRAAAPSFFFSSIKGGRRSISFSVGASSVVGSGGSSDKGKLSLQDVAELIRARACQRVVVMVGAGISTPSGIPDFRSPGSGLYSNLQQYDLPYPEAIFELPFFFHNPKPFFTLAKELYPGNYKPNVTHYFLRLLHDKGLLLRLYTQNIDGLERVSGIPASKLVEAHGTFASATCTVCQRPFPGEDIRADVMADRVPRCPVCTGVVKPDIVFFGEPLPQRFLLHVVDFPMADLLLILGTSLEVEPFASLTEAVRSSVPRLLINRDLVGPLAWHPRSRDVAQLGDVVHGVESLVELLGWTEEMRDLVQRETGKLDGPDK

[7] = target: T4, NAD-dependent protein deacetylase sirtuin-7 (Homo sapiens, UniProt Q9NRC8); assay: Inhibition of SIRT7 (unknown origin)
T4 sequence (Q9NRC8 whole entry): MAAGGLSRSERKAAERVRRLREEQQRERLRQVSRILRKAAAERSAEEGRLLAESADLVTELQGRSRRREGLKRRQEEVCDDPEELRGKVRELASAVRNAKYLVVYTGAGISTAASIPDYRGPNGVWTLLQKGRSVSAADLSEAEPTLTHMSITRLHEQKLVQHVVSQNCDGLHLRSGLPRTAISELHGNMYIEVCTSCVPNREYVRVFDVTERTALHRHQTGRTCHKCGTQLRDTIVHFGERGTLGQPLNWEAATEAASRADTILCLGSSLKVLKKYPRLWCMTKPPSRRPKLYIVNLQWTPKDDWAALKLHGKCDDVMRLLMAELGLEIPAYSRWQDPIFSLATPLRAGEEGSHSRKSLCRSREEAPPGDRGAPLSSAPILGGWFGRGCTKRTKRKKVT

Histone deacetylase 5 = Histone deacetylase 5 (Homo sapiens, UniProt Q9UQL6); assay: Inhibition of human recombinant HDAC5 using fluorogenic HDAC substrate class 2a after 30 mins by fluorimetrc method
Chain of Histone deacetylase 5 (Q9UQL6 whole entry): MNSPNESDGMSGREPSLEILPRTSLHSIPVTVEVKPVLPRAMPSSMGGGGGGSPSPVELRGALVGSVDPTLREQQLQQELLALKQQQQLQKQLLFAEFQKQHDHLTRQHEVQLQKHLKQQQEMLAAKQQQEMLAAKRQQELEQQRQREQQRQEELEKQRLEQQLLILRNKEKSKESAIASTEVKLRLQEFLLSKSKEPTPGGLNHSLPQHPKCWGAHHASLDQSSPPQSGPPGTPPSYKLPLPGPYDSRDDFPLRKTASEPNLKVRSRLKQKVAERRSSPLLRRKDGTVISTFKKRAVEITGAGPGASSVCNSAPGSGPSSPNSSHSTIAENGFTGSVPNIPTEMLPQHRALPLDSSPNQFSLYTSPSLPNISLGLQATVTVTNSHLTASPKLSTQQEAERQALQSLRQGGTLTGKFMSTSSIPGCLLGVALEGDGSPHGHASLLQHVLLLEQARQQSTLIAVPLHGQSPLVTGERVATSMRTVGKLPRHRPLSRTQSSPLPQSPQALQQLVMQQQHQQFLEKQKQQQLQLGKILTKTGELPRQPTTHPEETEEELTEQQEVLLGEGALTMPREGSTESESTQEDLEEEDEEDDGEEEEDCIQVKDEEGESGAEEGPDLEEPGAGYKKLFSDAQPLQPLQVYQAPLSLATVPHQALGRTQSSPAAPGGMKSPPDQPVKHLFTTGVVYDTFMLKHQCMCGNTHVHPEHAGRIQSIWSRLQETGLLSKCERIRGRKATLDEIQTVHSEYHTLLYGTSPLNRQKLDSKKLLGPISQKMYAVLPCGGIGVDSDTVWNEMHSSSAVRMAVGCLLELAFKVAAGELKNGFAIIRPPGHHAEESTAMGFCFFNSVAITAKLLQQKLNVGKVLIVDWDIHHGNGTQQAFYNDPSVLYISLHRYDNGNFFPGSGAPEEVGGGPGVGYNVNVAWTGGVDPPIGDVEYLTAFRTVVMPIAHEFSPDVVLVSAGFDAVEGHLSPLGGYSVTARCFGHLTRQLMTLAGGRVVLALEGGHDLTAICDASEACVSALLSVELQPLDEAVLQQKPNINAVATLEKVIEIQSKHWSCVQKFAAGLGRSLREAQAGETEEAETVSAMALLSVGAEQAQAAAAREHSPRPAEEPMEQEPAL

Histone deacetylase 9 = Histone deacetylase 9 (Homo sapiens, UniProt Q9UKV0); assay: Inhibition of human recombinant HDAC9 using fluorogenic HDAC substrate class 2a after 30 mins by fluorimetrc method
Chain of Histone deacetylase 9 (Q9UKV0 whole entry): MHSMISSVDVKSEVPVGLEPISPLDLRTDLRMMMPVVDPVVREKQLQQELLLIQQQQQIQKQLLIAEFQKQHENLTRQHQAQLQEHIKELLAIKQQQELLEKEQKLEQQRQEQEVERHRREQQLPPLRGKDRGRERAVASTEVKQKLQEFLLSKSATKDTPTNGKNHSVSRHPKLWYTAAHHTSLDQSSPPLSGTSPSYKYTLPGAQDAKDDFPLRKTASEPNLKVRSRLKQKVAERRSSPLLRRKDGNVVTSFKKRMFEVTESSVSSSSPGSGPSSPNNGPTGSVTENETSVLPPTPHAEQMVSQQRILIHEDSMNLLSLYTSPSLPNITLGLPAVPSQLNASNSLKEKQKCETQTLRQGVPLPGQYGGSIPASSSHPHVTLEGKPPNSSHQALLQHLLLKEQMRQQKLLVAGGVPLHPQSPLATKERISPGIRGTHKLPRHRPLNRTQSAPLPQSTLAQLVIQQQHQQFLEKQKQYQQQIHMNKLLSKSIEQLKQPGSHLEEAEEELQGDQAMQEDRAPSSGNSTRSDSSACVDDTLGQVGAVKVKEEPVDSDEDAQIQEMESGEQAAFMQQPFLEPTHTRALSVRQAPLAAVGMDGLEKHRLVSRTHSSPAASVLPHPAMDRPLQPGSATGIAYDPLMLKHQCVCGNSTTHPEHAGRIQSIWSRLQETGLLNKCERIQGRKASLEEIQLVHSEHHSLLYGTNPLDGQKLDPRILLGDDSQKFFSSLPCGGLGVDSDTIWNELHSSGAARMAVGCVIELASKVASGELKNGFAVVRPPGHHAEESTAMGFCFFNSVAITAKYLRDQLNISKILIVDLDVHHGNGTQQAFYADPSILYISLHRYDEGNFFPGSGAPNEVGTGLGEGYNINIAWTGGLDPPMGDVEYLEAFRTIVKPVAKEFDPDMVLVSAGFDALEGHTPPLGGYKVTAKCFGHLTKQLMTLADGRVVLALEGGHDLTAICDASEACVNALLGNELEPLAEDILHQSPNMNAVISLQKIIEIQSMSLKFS

[8] = target: T5, Polyamine deacetylase HDAC10 (Homo sapiens, UniProt Q969S8); assay: Inhibition of human recombinant HDAC10 using fluorogenic HDAC substrate after 45 mins by fluorimetrc method
T5 sequence (Q969S8 whole entry): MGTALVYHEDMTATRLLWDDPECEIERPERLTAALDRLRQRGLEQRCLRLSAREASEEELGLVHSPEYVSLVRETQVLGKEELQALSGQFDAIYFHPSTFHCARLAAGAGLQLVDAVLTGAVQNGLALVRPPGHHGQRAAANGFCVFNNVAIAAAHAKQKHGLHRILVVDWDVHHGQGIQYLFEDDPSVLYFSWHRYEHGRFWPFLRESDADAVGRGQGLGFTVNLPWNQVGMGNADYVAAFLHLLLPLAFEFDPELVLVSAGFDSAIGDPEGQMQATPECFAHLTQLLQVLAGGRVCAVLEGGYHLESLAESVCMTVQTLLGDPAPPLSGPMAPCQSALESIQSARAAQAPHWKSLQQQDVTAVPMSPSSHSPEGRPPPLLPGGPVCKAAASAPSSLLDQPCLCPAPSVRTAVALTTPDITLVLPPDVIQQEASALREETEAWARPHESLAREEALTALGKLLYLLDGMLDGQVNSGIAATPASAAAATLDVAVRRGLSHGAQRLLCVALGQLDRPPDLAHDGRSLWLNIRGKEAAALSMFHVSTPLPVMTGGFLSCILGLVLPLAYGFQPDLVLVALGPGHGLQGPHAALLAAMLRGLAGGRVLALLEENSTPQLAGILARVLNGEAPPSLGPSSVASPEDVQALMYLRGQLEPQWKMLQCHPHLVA

| hepatocyte CLint at 1 µM [1] | solubility at 24 h [2] | solubility at 24 h, 100 µM ([3]; phosphate buffer, pH 7.4) | EC50 (HuT78) | Ki [4] | Ki [5] | Ki [6] | Ki [7] | solubility ([3]; buffer, pH 7.4, 24 h, 100 µM) | Ki (Histone deacetylase 5) | Ki (Histone deacetylase 9) | Ki [8] | Compound |
| --- | --- | --- | --- | --- | --- | --- | --- | --- | --- | --- | --- | --- |
| 8.5 µL/min/1e6 cells | 20 mM (≈ 6990 µg/mL) | 0.069 mM (≈ 24.1 µg/mL) | 4.3 nM | > 10000 nM | > 10000 nM | > 10000 nM | > 10000 nM |  |  |  |  | Cc1[nH]c2ccccc2c1CCNCc1ccc(/C=C/C(=O)NO)cc1 [PANOBINOSTAT] |
| 9.8 µL/min/1e6 cells | 9.1 mM (≈ 3590 µg/mL) |  | 6.5 nM | > 10000 nM | > 10000 nM | > 10000 nM | > 10000 nM | > 0.097 mM | 4.3 nM | 5.3 nM | 4.4 nM | Cn1cc(CNCC2CCN(c3ncc(C(=O)NO)cn3)CC2)c2ccccc21 [QUISINOSTAT] |
